Laboratory results from ChEMBL document CHEMBL4414679, “Discovery of 4,6-pyrimidinediamine derivatives as novel dual EGFR/FGFR inhibitors aimed EGFR/FGFR1-positive NSCLC” (Eur J Med Chem, 2020).
The source made the active and inactive calls. The rule behind the calls is not given here.

How the values were obtained:
NCI-H226 = assay: Antiproliferative activity against human NCI-H226 cells assessed as inhibition of cell growth at 10 uM incubated for 48 hrs by MTT assay relative to control; format: functional; conditions: NCI-H226, 48 h
[1] = target: T1, Fibroblast growth factor receptor 1 (Homo sapiens, UniProt P11362); conditions: 10 uM
T1 sequence (P11362 22-822 limits assumed): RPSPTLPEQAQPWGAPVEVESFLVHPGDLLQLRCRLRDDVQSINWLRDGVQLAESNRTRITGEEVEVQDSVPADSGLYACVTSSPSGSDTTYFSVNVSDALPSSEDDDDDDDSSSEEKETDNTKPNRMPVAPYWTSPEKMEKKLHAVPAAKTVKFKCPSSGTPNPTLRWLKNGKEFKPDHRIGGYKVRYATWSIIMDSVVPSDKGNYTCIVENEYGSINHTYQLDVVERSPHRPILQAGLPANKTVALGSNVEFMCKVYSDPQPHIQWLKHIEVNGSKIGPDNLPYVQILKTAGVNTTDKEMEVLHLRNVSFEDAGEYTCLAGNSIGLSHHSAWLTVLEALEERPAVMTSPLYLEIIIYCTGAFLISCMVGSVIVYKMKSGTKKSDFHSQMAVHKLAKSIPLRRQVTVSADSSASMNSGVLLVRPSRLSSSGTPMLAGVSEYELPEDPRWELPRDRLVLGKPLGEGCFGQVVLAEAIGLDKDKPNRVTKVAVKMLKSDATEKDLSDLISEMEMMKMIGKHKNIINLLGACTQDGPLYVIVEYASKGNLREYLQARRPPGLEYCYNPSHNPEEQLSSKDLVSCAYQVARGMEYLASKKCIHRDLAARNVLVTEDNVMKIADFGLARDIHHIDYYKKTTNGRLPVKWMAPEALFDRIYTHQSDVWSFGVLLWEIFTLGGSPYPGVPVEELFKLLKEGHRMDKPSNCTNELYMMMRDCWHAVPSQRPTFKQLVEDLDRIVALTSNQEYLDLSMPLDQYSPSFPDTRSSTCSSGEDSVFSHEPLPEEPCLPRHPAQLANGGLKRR
Description: Inhibition of FGF-induced FGFR1 phosphorylation in serum-starved human H520 cells at 10 uM incubated for 1 hr by Western blot analysis

HCC827 = assay: Antiproliferative activity against human HCC827 cells assessed as inhibition of cell growth at 10 uM incubated for 48 hrs by MTT assay relative to control; format: functional; conditions: HCC827, 48 h
[2] = target: T1, Fibroblast growth factor receptor 1; conditions: 10 uM; remark: listed apart in the source
Description: Inhibition of FGFR in serum-starved human H520 cells assessed as reduction in FGFR-induced AKT phosphorylation at 10 uM incubated for 1 hr by Western blot analysis

PC-9 = assay: Antiproliferative activity against human PC9 cells assessed as inhibition of cell growth at 10 uM incubated for 48 hrs by MTT assay relative to control; format: functional; conditions: PC-9, 48 h
NCI-H520 = assay: Antiproliferative activity against human NCI-H520 cells assessed as inhibition of cell growth at 10 uM incubated for 48 hrs by MTT assay relative to control; format: functional; conditions: NCI-H520, 48 h
NCI-H1581 = assay: Antiproliferative activity against human NCI-H1581 cells assessed as inhibition of cell growth at 10 uM incubated for 48 hrs by MTT assay relative to control; format: functional; conditions: NCI-H1581, 48 h

`CCN1CCN(c2ccc(Nc3cc(N(C)C(=O)Nc4c(Cl)c(OC)cc(OC)c4Cl)ncn3)cc2)CC1` [INFIGRATINIB] was tested, and the inhibition at 10 µM (NCI-H226) was 67.3%, the inhibition [1] was “Active” and the inhibition at 10 µM (HCC827) was 32%. The inhibition [2] was “Active”, the inhibition at 10 µM (PC-9) was 55.5% and the inhibition at 10 µM (NCI-H520) was 77.1%. It also gave an inhibition at 10 µM (NCI-H1581) of 83.7%.
